The values below come from article PMC7087482 (Journal of medicinal chemistry, 2020).

Entries after “also recorded” stand apart in the source; their conditions may differ.

Data set [1] relates to CYP3A4. Description: Western blot of CYP3A4 protein level after compound treatment. Particulars: 1 μM compound, 24 h treatment. On the technique in general: Immunoblotting shows a protein as a band on a membrane.
For data set [2], the target named is T1, CYP3A4 (Homo sapiens, UniProt P08684). The data set can be described thus: Cytochrome P450 inhibition panel in pooled human liver microsomes. Particulars: 1.8 μM clobetasol. Type of data set: biochemical. For orientation: Liver microsomes are a subcellular fraction often used to study metabolism.
For data set [3], the system named is CYP1A2, 2B6, 2C8, 2C9, 2C19, and 2D6. The data set is described as above. Type of data set: biochemical. Particulars: 1.8 μM clobetasol, own probe substrate per CYP.
Data set [4] concerns the target T2, CYP3A5 (Homo sapiens, UniProt P20815). The data set can be described thus: CW X-band EPR spectroscopy of CYP3A5-ligand complexes. Particulars: CYP 200 μM, compound 400 μM, 10 K.
Data set [5] concerns the target T1, CYP3A4. Description: CW X-band EPR spectroscopy of CYP3A4-ligand complexes. Particulars: CYP 200 μM, compound 400 μM, 10 K.
For data set [6], the target named is T1, CYP3A4. The data set can be described thus: P450-Glo luminescence biochemical inhibition assay. Particulars: compound at 1.8 μM, DMSO 0.1%.
In data set [7] the target is T2, CYP3A5. Description: CYP3A5 activity in AsPC-1 cells by 1-hydroxymidazolam formation. Type of data set: cell-based. Particulars: 5 μM midazolam, 24 h.
The target of data set [8] is T2, CYP3A5. The data set can be described thus: UV-visible absorbance titration with purified recombinant CYP3A5. Particulars: UV-visible Soret band shift.

As to `CC(=O)N1CCN(c2ccc(OCC3COC(Cn4ccnc4)(c4ccc(Cl)cc4Cl)O3)cc2)CC1` (stereo not shown) [ketoconazole, Ketoconazole], the “Effect on CYP3A4 protein level (Western blot)” value in the data set on CYP3A4 [1] is “increased CYP3A4 protein expression”.

With `CCC(=O)O[C@]1(C(=O)CCl)[C@@H](C)C[C@H]2[C@@H]3CCC4=CC(=O)C=C[C@]4(C)[C@@]3(F)[C@@H](O)C[C@@]21C` [clobetasol, Clobetasol propionate], at CYP3A4 [2], the “Inhibition of CYP3A4-mediated catalysis, substrate midazolam” value is on record as “uninhibited” and the “Inhibition of CYP3A4-mediated catalysis, substrate testosterone” value is “uninhibited”. Besides, the “Inhibition of other major human CYPs” value in data set [3] is reported as “little or no inhibition; also recorded: no significant inhibition”. Further, the “Effect on CYP3A4 protein level (Western blot)” value in the data set on CYP3A4 [1] is listed as “did not increase the protein level of CYP3A4”. The “Heme iron spin state of CYP3A5 complex (EPR)” value at CYP3A5 [4] was “five-coordinate HS ferric heme iron state”. Also, the “Heme iron spin state of CYP3A4 complex (EPR)” value on CYP3A4 [5] is “no new HS formation”. Besides, the “Inhibition of CYP3A4” value on CYP3A4 [6] is “no inhibition”. For the same molecule, the “Inhibition of CYP3A5 activity (1OH-MDZ formation)” value at CYP3A5 [7] (CYP3A5 overexpressed (+Dox) in WT or 3A5-/- AsPC-1 cells) is on record as “inhibited the CYP3A5 activity”. At CYP3A5 [7] (parental AsPC-1 (WT) cells, dose-response), the “Inhibition of CYP3A5 activity (1OH-MDZ formation) compared with ketoconazole” value is recorded as “slightly more potent”.

With `Cc1ncc2n1-c1ccc(Cl)cc1C(c1ccccc1F)=NC2` [midazolam, Midazolam], on CYP3A5 [8], the “Spectral shift type on titration with CYP3A5” value is listed as “typical type I CYP spectral shift”. The “Heme iron spin state of CYP3A5 complex (EPR)” value on CYP3A5 [4] is recorded as “five-coordinate HS ferric heme iron state”. Also, at CYP3A4 [5], the “Heme iron spin state of CYP3A4 complex (EPR)” value was “an HS signal was induced”.
